{
  "source": "patent US7262171B1",
  "about": "“Use of rhamnolipids in wound healing, treating burn shock, atherosclerosis, organ transplants, depression, schizophrenia and cosmetics” (Paradigm Biomedical, Inc., priority 1998, dated 2007)",
  "key": {"mice": {"test_system": "mice", "settings": "cited from earlier work; for PCP-induced enhancement of immobility in the forced swimming test: doses that failed to produce antidepressant effects in control animals"}, "burn wounds [1]": {"test_system": "burn wounds", "experiment": "Topical treatment of burn wounds, 7% of body surface", "settings": "for mean value of collagen tissue: sacrificed on 45th day, histopathology; for mean value of collagen concentration relative to group 1 D (placebo): placebo taken as 1100% (printed)"}, "burn wounds [2]": {"test_system": "burn wounds", "experiment": "Topical treatment of burn wounds, 15% of body surface", "format": "in vivo, Sprague-Dawley rats", "settings": "1% BAC-3 in ointment without chlorhexidine, started on 50th day after burning on open wounds; tapering regimen", "protocol": "Method of burning. […] (Producer: Veterinary Laboratory Inc. Lenexa, Kans.).\nFour rats were burned according to the described procedure using the wider opening in the Walker device (10×5 cm). All rats were treated from the beginning by placebo. After 50 days all burned rats had open wounds in average 2.3 cm at the neck, 1.3 cm in the middle and 1.8 cm at the tail.\nOn the 50th day after burning, animals were treated with 1% BAC-3 in ointment without chlorhexidine hydrochloride using the following procedure:\nFor the first 3 days, burn wounds were treated twice daily. After developing granulation tissue and the first sign of epithelization, animals were treated 3 days with 1% BAC-3 in ointment once daily. For the next four days, animals were treated every second day. After that wounds were treated every third day with 1% BAC-3 in ointment until the entire wound was re-epithelized. Re-epithelization was first completed at the middle of the wounds, then at the tails and finally at the necks. Whole epithelization in all animals was finished in 30 days."}, "incision wounds": {"test_system": "incision wounds", "experiment": "Tensile strength of incision wounds", "format": "in vivo, Sprague-Dawley rats", "settings": "0.1% BAC-3, 21 days after wounding, p<0.05 by ANOVA; FIG. 3", "from_the_text": "Incision wounds. Dorsal midline incisions were made in anesthetized rats. The animals were clipped free of their fur and prepared with alcohol. A 5.0 cm, midline, full-thickness incision was made with a scalpel through the panniclus carnosus.\nThe wounds were immediately closed with skin sutures spaced at a distance of 0.5 cm. Seven days later, all sutures were removed. On days 14 and 21 after incision, three animals from each group were killed using an overdose of sodium pentobarbital. Using a plexiglass template, a minimum of two samples of full-thickness skin were harvested perpendicular to the long axis of the wound for tensile strength determination. The skin samples were 9.0 mm wide at the wound by 2.0 cm long.\nTensile Strength Determination. The standard wound samples for each treatment cohort were examined for tensile strength by pulling the individual wounds apart in an Instron 4201 (Universal Testing instruments, Instron Engineering Co., Canton, Mass.) material tester. Special clamps were used to securely grip the tissue to avoid slippage as the wounds were pulled at a standard cross speed of 25 mm/min. The tensile strength of healthy skin was measured in killed animals from each group.\nEffect of BAC-3 on Tensile Strength of Incision Wounds (FIG. 3) with and without chlorhexidine hydrochloride. The tensile strength of incision wounds was measured 21 days after wounding. […]"}, "venous ulcer": {"test_system": "venous ulcer", "experiment": "Open wound healing in a patient with incurable venous ulcer", "format": "in vivo, human", "settings": "1% BAC-3 ointment, twice daily during 41 days", "protocol": "The BAC-3 rhamnolipid was tested in the case of open wound healing, in a patient suffering around ten years from incurable venous ulcer. On the left leg, the patient had very thick layers of collagen with fibrotic lesions. […] Moreover, after treatment was finished, not only the collagen, but also the fibrotic lesions had disappeared as well. One year after the treatment, the treated skin lesions on the left leg appear normal, and all skin collagen and fibrotic layers had disappeared."}, "WKY rats [3]": {"test_system": "WKY rats", "settings": "cited from earlier work"}, "WKY rats [4]": {"test_system": "WKY rats", "settings": "cited from earlier work", "remark": "listed apart in the source"}},
  "note": "Structures can show the parent of a compound that is named as a salt.",
  "data": [
    {"smiles": "Cc1nc2sccn2c(=O)c1CCN1CCC(=C(c2ccc(F)cc2)c2ccc(F)cc2)CC1", "note": "[ritanserin]", "values": [
      {"measurement": "PCP-induced enhancement of immobility in the forced swimming test", "setting": "mice; mice", "result": "attenuated"}
    ]},
    {"smiles": "[H]/N=C(\\N/C(=N/[H])NCCCCCCNC(=N)NC(=N)Nc1ccc(Cl)cc1)Nc1ccc(Cl)cc1", "note": "[chlorhexidine hydrochloride, reference compound]", "values": [
      {"measurement": "wound irritation", "setting": "burn wounds [1]; 1% chlorhexidine hydrochloride in combination with BAC-3, rats scratched lower and upper part of burn wounds", "result": "irritated wounds"}
    ]},
    {"smiles": "CCCCCCCC(CC(=O)O)OC(=O)CC(CCCCCCC)OC1OC(C)C(O)C(O)C1OC1OC(C)C(O)C(O)C1O", "note": "[BAC-3, (α-L-rhamnopyranosyl-(1,2)-α-L-rhamnopyranosyl)-3-hyroxydecanoyl-3-hydroxydecanoic acid]", "values": [
      {"measurement": "time to whole epithelization in all animals", "setting": "burn wounds [2]", "result": 30, "unit": "days"},
      {"measurement": "tensile strength of incision wounds vs corresponding vehicle", "setting": "incision wounds", "result": "significantly lower"},
      {"measurement": "rate of burn wound closure (decrease in wound size) vs vehicle alone", "setting": "burn wounds [1]; 0.1% BAC-3 in eucerin, without chlorhexidine, twice daily, days 14-45, FIG. 1", "result": "significantly faster"},
      {"measurement": "extent of burn wound closure (wound size) vs vehicle alone", "setting": "burn wounds [1]; 0.1% BAC-3 in eucerin, without chlorhexidine, days 14, 21 and 28, p<0.05 by ANOVA, FIG. 2", "result": "significantly smaller"},
      {"measurement": "body weights among the treatment groups", "setting": "burn wounds [1]; 1% and 0.1% BAC-3 in eucerin vs vehicle, twice daily, 45 days", "result": "no significant differences"},
      {"measurement": "crust formation", "setting": "burn wounds [1]; between all groups (1% and 0.1% BAC-3, with or without chlorhexidine, placebo), 45 days", "result": "no significant differences"},
      {"measurement": "granulation tissue", "setting": "burn wounds [1]; group 1-A: 1% BAC-3 in ointment twice daily", "result": "prominently developed"},
      {"measurement": "hair growth of dead skin during the healing period", "setting": "burn wounds [1]; group 1-A: 1% BAC-3 in ointment, compared to the other groups", "result": "very prominent"},
      {"measurement": "re-epithelization in the middle part of the burn wounds", "setting": "burn wounds [1]; group 1-B: 0.1% BAC-3 in ointment twice daily", "result": "faster"},
      {"measurement": "mean value of collagen tissue", "setting": "burn wounds [1]; group 1 A: 1% BAC-3, without chlorhexidine", "result": 8.48, "unit": "mm^2"},
      {"measurement": "mean value of collagen concentration relative to group 1 D (placebo)", "setting": "burn wounds [1]; group 1 A: 1% BAC-3", "result": 131.26},
      {"measurement": "mean value of collagen tissue", "setting": "burn wounds [1]; group 1 B: 0.1% BAC-3, without chlorhexidine", "result": 5.15, "unit": "mm^2"},
      {"measurement": "mean value of collagen concentration relative to group 1 D (placebo)", "setting": "burn wounds [1]; group 1 B: 0.1% BAC-3", "result": 79.72},
      {"measurement": "granulation tissue", "setting": "burn wounds [1]; group 2-A: 1% BAC-3 in ointment plus 1% chlorhexidine hydrochloride twice daily", "result": "prominently developed"},
      {"measurement": "re-epithelization in the middle part of the burn wounds", "setting": "burn wounds [1]; group 2-B: 0.1% BAC-3 in ointment plus 1% chlorhexidine hydrochloride twice daily", "result": "faster"},
      {"measurement": "collagen and fibrotic lesions after treatment was finished", "setting": "venous ulcer", "result": "disappeared"},
      {"measurement": "treated skin lesions one year after the treatment", "setting": "venous ulcer; one year after", "result": "appear normal"},
      {"measurement": "patient's condition", "setting": "venous ulcer; venous ulcer, left leg", "result": "significantly improved"}
    ]},
    {"smiles": "CNCCCN1c2ccccc2CCc2ccccc21", "note": "[desipramine]", "values": [
      {"measurement": "immobility in the forced swim test", "setting": "WKY rats [3]", "result": "reduces immobility"},
      {"measurement": "incidence of stress ulcer", "setting": "WKY rats [4]", "result": "reduces the incidence of stress ulcer"}
    ]},
    {"smiles": "Cc1nc2n(c(=O)c1CCN1CCC(c3noc4cc(F)ccc34)CC1)CCCC2", "note": "[risperidone]", "values": [
      {"measurement": "PCP-induced enhancement of immobility in the forced swimming test", "setting": "mice; mice", "result": "attenuated"}
    ]},
    {"smiles": "c1ccc(C2(N3CCCCC3)CCCCC2)cc1", "note": "[PCP, phencyclidine]", "values": [
      {"measurement": "forced swimming-induced immobility", "setting": "mice; mice treated repeatedly with PCP (10 mg/kg per day S.C.), same stress again", "result": "enhanced"},
      {"measurement": "persistence of the enhancing effect on immobility after withdrawal of the drug", "setting": "mice; mice, PCP 10 mg/kg per day S.C.", "result": "at least 21 days"}
    ]}
  ]
}
